Data taken from PubChem BioAssay (NCI).
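1) Cells in 96-well plates. 2) Compound, 48 h, 5 concentrations. 3) Linear interpolation between surrounding doses. 4) Unreached endpoint = highest concentration. TGI: concentration producing complete growth inhibition.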

How the values were obtained:
Assay in all cases: DTP human tumour cell line panel, 48 h
NCI/ADR-RES ovarian = test system: NCI/ADR-RES ovarian
NCI-H226 lung = test system: NCI-H226 lung
HOP-62 NSCLC = test system: HOP-62 NSCLC
OVCAR-8 ovarian = test system: OVCAR-8 ovarian
SN12C renal = test system: SN12C renal
HCT-15 colon = test system: HCT-15 colon
MDA-N = test system: MDA-N
UACC-257 melanoma = test system: UACC-257 melanoma
SF-295 CNS = test system: SF-295 CNS
MDA-MB-231 breast = test system: MDA-MB-231 breast
K-562 leukemia = test system: K-562 leukemia
SW-620 colon = test system: SW-620 colon
HT29 colon = test system: HT29 colon
MOLT-4 leukemia = test system: MOLT-4 leukemia
LOX IMVI melanoma = test system: LOX IMVI melanoma
SK-OV-3 ovarian = test system: SK-OV-3 ovarian
NCI-H23 lung = test system: NCI-H23 lung
U251 CNS = test system: U251 CNS
COLO 205 colon = test system: COLO 205 colon
M14 melanoma = test system: M14 melanoma
SR leukemia = test system: SR leukemia
UO-31 renal = test system: UO-31 renal
RPMI-8226 leukemia = test system: RPMI-8226 leukemia
MALME-3M melanoma = test system: MALME-3M melanoma
A498 renal = test system: A498 renal
HS 578T breast = test system: HS 578T breast
SNB-19 CNS = test system: SNB-19 CNS
MDA-MB-435 = test system: MDA-MB-435
EKVX NSCLC = test system: EKVX NSCLC
OVCAR-5 ovarian = test system: OVCAR-5 ovarian
KM12 colon = test system: KM12 colon
CCRF-CEM leukemia = test system: CCRF-CEM leukemia
MCF7 breast = test system: MCF7 breast
OVCAR-3 ovarian = test system: OVCAR-3 ovarian
SK-MEL-5 melanoma = test system: SK-MEL-5 melanoma
OVCAR-4 ovarian = test system: OVCAR-4 ovarian
DU-145 prostate = test system: DU-145 prostate
HCT-116 colon = test system: HCT-116 colon
ACHN renal = test system: ACHN renal
A549 NSCLC = test system: A549 NSCLC
SK-MEL-2 melanoma = test system: SK-MEL-2 melanoma
PC-3 prostate = test system: PC-3 prostate
786-0 renal = test system: 786-0 renal
SF-268 CNS = test system: SF-268 CNS
IGROV1 ovarian = test system: IGROV1 ovarian
TK-10 renal = test system: TK-10 renal
SK-MEL-28 melanoma = test system: SK-MEL-28 melanoma
UACC-62 melanoma = test system: UACC-62 melanoma
SNB-75 CNS = test system: SNB-75 CNS

What does the source list for `COc1cc2oc(=O)cc(C)c2c(OC)c1OC`?
TGI (NCI/ADR-RES ovarian): > 100 µM; TGI (NCI-H226 lung): > 100 µM; TGI (HOP-62 NSCLC): > 100 µM; TGI (OVCAR-8 ovarian): > 100 µM; TGI (SN12C renal): > 100 µM; TGI (HCT-15 colon): > 100 µM; TGI (MDA-N): > 100 µM; TGI (UACC-257 melanoma): > 100 µM; TGI (SF-295 CNS): > 100 µM; TGI (MDA-MB-231 breast): > 100 µM; TGI (K-562 leukemia): > 100 µM; TGI (SW-620 colon): > 100 µM; TGI (HT29 colon): > 100 µM; TGI (MOLT-4 leukemia): > 100 µM; TGI (LOX IMVI melanoma): > 100 µM; TGI (SK-OV-3 ovarian): > 100 µM; TGI (NCI-H23 lung): > 100 µM; TGI (U251 CNS): > 100 µM; TGI (COLO 205 colon): > 100 µM; TGI (M14 melanoma): > 100 µM; TGI (SR leukemia): > 100 µM; TGI (UO-31 renal): > 100 µM; TGI (RPMI-8226 leukemia): > 100 µM; TGI (MALME-3M melanoma): > 100 µM; TGI (A498 renal): 96.8 µM; TGI (HS 578T breast): > 100 µM; TGI (SNB-19 CNS): > 100 µM; TGI (MDA-MB-435): > 100 µM; TGI (EKVX NSCLC): > 100 µM; TGI (OVCAR-5 ovarian): > 100 µM; TGI (KM12 colon): > 100 µM; TGI (CCRF-CEM leukemia): > 100 µM; TGI (MCF7 breast): > 100 µM; TGI (OVCAR-3 ovarian): > 100 µM; TGI (SK-MEL-5 melanoma): > 100 µM; TGI (OVCAR-4 ovarian): > 100 µM; TGI (DU-145 prostate): > 100 µM; TGI (HCT-116 colon): > 100 µM; TGI (ACHN renal): > 100 µM; TGI (A549 NSCLC): > 100 µM; TGI (SK-MEL-2 melanoma): > 100 µM; TGI (PC-3 prostate): > 100 µM; TGI (786-0 renal): > 100 µM; TGI (SF-268 CNS): > 100 µM; TGI (IGROV1 ovarian): > 100 µM; TGI (TK-10 renal): > 100 µM; TGI (SK-MEL-28 melanoma): > 100 µM; TGI (UACC-62 melanoma): > 100 µM; TGI (SNB-75 CNS): > 100 µM
